In patent US20250186437A1, “CARBOLINE COMPOUNDS AND USE THEREOF” (PTC Therapeutics, Inc., priority 2021, published 2025):

Test system: MOLM-13 cells
Experiment: MOLM-13 Cell Proliferation Assay (indicator of DHODH inhibition)
Type: cell-based
Details: Homo sapiens, 72 Hours of culture, CellTiter-Glo, no uridine
Procedure, shortened: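 Low-passage MOLM-13 cells (10^4/well) in RPMI 1640 + 10% FBS exposed to compound (0.5% DMSO final) for 72 h at 37 °C, 5% CO2. Viability read by CellTiter-Glo luminescence; growth reflects de novo pyrimidine synthesis dependent on DHODH.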

IC50 [nM] | Structure (SMILES)
23.3 | Oc1cc(C2c3[nH]c4ccc(Cl)cc4c3CCN2c2ncc(F)cn2)ccc1Cl (stereo not drawn) [Compound 219, 2-chloro-5-[6-chloro-2-(5-fluoropyrimidin-2-yl)-2,3,4,9-tetrahydro-1H-pyrido[3,4-b]indol-1-yl]phenol]
1.1 | Cc1nc(N2CCc3c([nH]c4ccc(Cl)c(F)c34)C2c2ccc(/C=C/CCO)cc2)nc(C)c1F (stereo not drawn) [Compound 243, (3E)-4-{4-[6-chloro-5-fluoro-2-(5-fluoro-4,6-dimethylpyrimidin-2-yl)-2,3,4,9-tetrahydro-1H-pyrido[3,4-b]indol-1-yl]phenyl}but-3-en-1-ol]
11.2 | CN1CCN(c2ccc(C3c4[nH]c5ccc(-n6nccn6)cc5c4CCN3c3nccc(C(F)(F)F)n3)cn2)CC1 (stereo not drawn) [Compound 513, 1-[6-(4-methylpiperazin-1-yl)pyridin-3-yl]-6-(2H-1,2,3-triazol-2-yl)-2-[4-(trifluoromethyl)pyrimidin-2-yl]-2,3,4,9-tetrahydro-1H-pyrido[3,4-b]indole]
5.1 | Fc1c(C2c3[nH]c4ccc(Cl)cc4c3CCN2c2nccc(C(F)(F)F)n2)ccc(N2CCOCC2)c1F (stereo not drawn) [Compound 279, 6-chloro-1-[2,3-difluoro-4-(morpholin-4-yl)phenyl]-2-[4-(trifluoromethyl)pyrimidin-2-yl]-2,3,4,9-tetrahydro-1H-pyrido[3,4-b]indole]
28.3 | Cc1ccc(C2c3[nH]c4ccc(Cl)cc4c3CCN2c2nccc(C(F)(F)F)n2)cc1O (stereo not drawn) [Compound 258, 5-{6-chloro-2-[4-(trifluoromethyl)pyrimidin-2-yl]-2,3,4,9-tetrahydro-1H-pyrido[3,4-b]indol-1-yl}-2-methylphenol]
3.9 | N#Cc1ccnc(N2CCc3c([nH]c4cc(F)c(Cl)cc34)C2c2ccc(/C=C/CCO)cc2)n1 (stereo not drawn) [Compound 224, 2-(6-chloro-7-fluoro-1-{4-[(1E)-4-hydroxybut-1-en-1-yl]phenyl}-1,3,4,9-tetrahydro-2H-pyrido[3,4-b]indol-2-yl)pyrimidine-4-carbonitrile]
10.6 | N#Cc1ccc(C2c3[nH]c4cc(F)c(Cl)cc4c3CCN2c2nccc(Br)n2)cc1 (stereo not drawn) [Compound 69, 4-[2-(4-bromopyrimidin-2-yl)-6-chloro-7-fluoro-2,3,4,9-tetrahydro-1H-pyrido[3,4-b]indol-1-yl]benzonitrile]
21.3 | Cc1ccnc(N2CCc3c([nH]c4cc(F)c(Cl)cc34)C2c2ccc(N(C)C)nc2)n1 (stereo not drawn) [Compound 126, 5-[6-chloro-7-fluoro-2-(4-methylpyrimidin-2-yl)-2,3,4,9-tetrahydro-1H-pyrido[3,4-b]indol-1-yl]-N,N-dimethylpyridin-2-amine]
0.5 | Cc1ccc(C2c3[nH]c4ccc(Cl)c(F)c4c3CCN2c2ncc(F)c(C#N)n2)c(F)c1F (stereo not drawn) [Compound 214, 2-[6-chloro-1-(2,3-difluoro-4-methylphenyl)-5-fluoro-1,3,4,9-tetrahydro-2H-pyrido[3,4-b]indol-2-yl]-5-fluoropyrimidine-4-carbonitrile]
4.1 | Clc1ccc2[nH]c3c(c2c1)CCN(c1ncc(-c2ccccc2)cn1)[C@H]3c1cnc(N2CCOCC2)nc1 [Compound 472, (1S)-6-chloro-1-[2-(morpholin-4-yl)pyrimidin-5-yl]-2-(5-phenylpyrimidin-2-yl)-2,3,4,9-tetrahydro-1H-pyrido[3,4-b]indole]
7.4 | Cc1ccc(C2c3[nH]c4cc(F)c(Cl)cc4c3CCN2c2nc(C)c(F)c(C)n2)cc1 (stereo not drawn) [Cpd 106, 6-chloro-7-fluoro-2-(5-fluoro-4,6-dimethylpyrimidin-2-yl)-1-(4-methylphenyl)-2,3,4,9-tetrahydro-1H-pyrido[3,4-b]indole]
20.7 | Fc1c(Cl)ccc2[nH]c3c(c12)CCN(c1nccc(C(F)(F)F)n1)C3c1cncnc1 (stereo not drawn) [Compound 191, 6-chloro-5-fluoro-1-(pyrimidin-5-yl)-2-[4-(trifluoromethyl)pyrimidin-2-yl]-2,3,4,9-tetrahydro-1H-pyrido[3,4-b]indole]
